# According to US20250177405A1, “METHODS OF TREATING NEUROLOGICAL AND CARDIOVASCULAR CONDITIONS” (ASTROCYTE PHARMACEUTICALS, INC., priority 2021, published 2025):
# What was measured:
# brain A1R/A3R [1] = assay: estimated brain receptor occupancy of I-1 in nonhuman primate stroke study; type: in vivo
# Protocol: Cerebrospinal fluid drug concentration is an established proxy for unbound drug brain concentration that interacts with central receptor targets (references 46, 47). The unbound brain concentrations and resulting brain receptor occupancy at the A1R and A3R can be estimated using receptor affinity data and simple mass action equations (references 48, 49). […] Accordingly, during the 22 h infusion of I-1, sufficient CSF concentrations were available to provide coverage of central A1R and A3R in the macaque.
# (§1) Receptor occupancy is a mass action relationship:
# (§2) The percentage of a receptor occupied by an agonist or antagonist is a function of the drug concentration and the drug affinity for the receptor target. The challenge is that drug concentrations at the target site (in this case, brain, and CSF) can vary by species, as can affinity for the drug target. Affinity of I-1 for its receptor target can vary by as much as 5-fold between species. Accordingly, for each species, it is necessary to determine the I-1 affinity for its target as well as the concentration of I-1 at each administered dose in a relevant matrix.
# We then proceeded to our key preclinical stroke efficacy model in nonhuman primates. Pre-efficacy pharmacokinetic studies obtained plasma and CSF pharmacokinetic data. […]
# brain A1R/A3R [2] = assay: estimated brain receptor occupancy of I-1 in neonatal pig efficacy studies; type: in vivo
# From the text: as §1, §2
# Using this receptor occupancy estimate, we advanced to studies in neonatal pigs, targeting doses that would yield unbound brain and CSF concentrations that would provide a similar receptor occupancy to that associated with efficacy in the rodent models. In the pig, we had the advantage of conducting pharmacokinetic studies involving CSF collection, brain equilibrium dialysis to directly determine brain unbound extracellular fluid concentrations, plasma concentrations and finally total brain concentrations. […] This was a key study to validate the use of I-1 CSF concentrations to estimate brain receptor occupancy. In the pig efficacy studies, we achieved efficacy at estimated receptor occupancies of around 2%.
# [3] = system: photothrombosis-induced stroke in mice; assay: mouse photothrombotic stroke model; type: in vivo
# Protocol: Photothrombosis-induced Stroke: Photothrombosis is performed as described in Zheng et al 2010 (PloS One 5 (12): e14401). In brief, Rose Bengal is a fluorescent dye that when injected into the vasculature and excited, generates singlet oxygen that damages the endothelial wall and induces a local thrombosis (clot). Using this technique, mice are given a 0.1 mL tail-vein injection of sterilized Rose Bengal (RB, Sigma, U.S.A.) in artificial cerebral spinal fluid (aCSF). The RB concentration is 20 mg/mL. A cortical region is centered in the imaging field and illuminated with a green laser (543 nm, 5 mW) using a 0.8-NA 40× water-immersion objective (Nikon, Tokyo). The clot formation is monitored in real time until the targeted vessel or downstream capillaries are firmly occluded. […]
# Animals and Photothrombosis-induced Stroke: Stroke is performed as described in Zheng et al 2010 (PloS One 5 (12): e14401). […] Depth of anesthesia is monitored and regulated according to vital signs, pinch withdrawal and eye blinks. […] Vital signs including oxygen saturation, respiratory rate, and heart rate are continuously monitored by using the MouseOx system (STARR Life Sciences). […]
# Post photothrombotic infarction evaluation. The size of cerebral infarcts is evaluated using 2,3,5-Triphenyltetrazolium chloride (TTC) staining as described in Zheng et al 2010 (PloS One 5 (12): e14401). […]
# [4] = system: cynomolgus monkey model of transient middle cerebral artery occlusion (tMCAO); assay: Neurologic Deficit Score (NDS) after tMCAO; type: in vivo, Macaca fascicularis; conditions: study Days 1 to 5, I-1-treated composite versus vehicle, p=0.11
# From the text: Twenty-four hours and 5 days after occlusion, neurologic deficits were scored using the Neurologic Deficits Score (NDS) as described elsewhere (reference 25). The NDS was considered as a secondary efficacy endpoint.
# brain A1R/A3R [5] = assay: estimated brain receptor occupancy of I-1 in rodent efficacy studies; type: in vivo; conditions: mouse and rat efficacy models, from brain unbound drug concentrations
# From the text: as §1, §2
# In our rodent mouse and rat efficacy studies, we were able to directly determine brain unbound drug concentrations at efficacious doses. In those efficacy models, the estimated receptor occupancies associated with efficacy were around 1% or less.
smiles,measurement,setting,value
CSc1nc(N)c2ncn([C@H]3C(O)C(O)[C@]4(CO)C[C@H]34)c2n1 (stereo in doubt) [Compound I-1],estimated receptor occupancy associated with significant efficacy,"brain A1R/A3R [1]; NHP stroke study, Low, Mid, High Doses",1-15%
same,estimated receptor occupancy at which efficacy started,brain A1R/A3R [1]; monkey,~34%
same,estimated receptor occupancies at which efficacy was achieved,brain A1R/A3R [2],around 2%
same,efficacy in presence of the A3 antagonist MRS1523,[3]; mouse photothrombotic stroke and TBI models,blocked
same,efficacy in mouse photothrombotic stroke model,"[3]; mouse, in vivo",significant efficacy
same,neurological function (NDS) change,[4],improved but statistically non-significant
same,estimated receptor occupancies associated with efficacy,brain A1R/A3R [5],≤ 1%
